Experimental data: US6130228A, “Polycyclic compounds” (priority 1995, dated 2000)
Like-named read-outs stand apart in the source and are kept apart here.

How the values were obtained:
5-HT (serotonin) uptake = type: biochemical, rat (Sprague Dawley)
Method: (§1) One male rat (Sprague Dawley) weighing approx. 200-250 g was sacrificed by cervical dislocation. The brain was dissected out and the cerebellum discarded. The brain was then weighed and 10 ml ice cold sucrose (0.32M) added per gram tissue. […] The pellet was discarded and the supernatant retained (crude synaptosomal preparation).
(§2) All tubes were set up in triplicate. […] 100 μl of the prepared synaptosomal preparation was added to each tube and incubated for 5 minutes in a shaking water bath at 37° C. Any reaction was stopped by plunging the tubes into an ice water bath. ^3 H NA (10^-7 M) or ^3 H 5-HT ([…]) was added to each tube and incubated for 5 minutes in a shaking water bath at 37° C. Any reaction was stopped by plunging the tubes into an ice-water bath. Accumulated monoamines were collected using a Brandell Cell Harvester under mild vacuum. Filters were rinsed (2×) using 4 ml of ice-cold 0.9% saline. Scintillation fluid was added (4 ml/tube). Radioactivity was measured on a scintillation counter.
(§3) Non-specific values were subtracted from total values. The control was taken as 100%. Drug effects were calculated as a percentage of control inhibitor value. A graph of log of drug concentration versus % control was plotted and IC50 values were calculated by interpolation.

[1] = target: T1, Acetylcholinesterase (AChE) (Rattus norvegicus, UniProt P37136); test: biochemical; type: biochemical, Male Rats (Sprague Dawley), brain
T1 construct: The brain was removed and homogenised; from tissue; host or cells: rat brain (male Sprague Dawley), Triton X100 detergent supernatant of the EDTA-buffer pellet
T1 sequence (P37136 32-614): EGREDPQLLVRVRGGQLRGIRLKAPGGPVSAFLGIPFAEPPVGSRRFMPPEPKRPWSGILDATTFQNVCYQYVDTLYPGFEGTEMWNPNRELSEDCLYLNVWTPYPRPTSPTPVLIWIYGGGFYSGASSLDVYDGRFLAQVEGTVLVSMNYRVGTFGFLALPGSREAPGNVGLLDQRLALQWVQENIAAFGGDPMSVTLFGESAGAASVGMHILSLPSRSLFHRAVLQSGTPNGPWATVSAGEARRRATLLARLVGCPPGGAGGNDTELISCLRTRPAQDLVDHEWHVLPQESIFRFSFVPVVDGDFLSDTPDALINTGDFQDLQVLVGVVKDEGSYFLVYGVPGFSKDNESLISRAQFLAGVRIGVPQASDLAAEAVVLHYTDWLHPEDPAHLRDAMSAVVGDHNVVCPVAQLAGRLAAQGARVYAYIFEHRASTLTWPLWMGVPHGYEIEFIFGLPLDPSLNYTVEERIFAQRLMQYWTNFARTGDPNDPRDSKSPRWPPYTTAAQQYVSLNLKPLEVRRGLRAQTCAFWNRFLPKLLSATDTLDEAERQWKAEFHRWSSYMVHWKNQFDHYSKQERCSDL
Method: (i) Enzyme Source for AChE
5 Male Rats (Sprague Dawley) weighing approx 250 g were killed by CO2 overdose and cervical dislocation.
The brain was removed and homogenised (9 strokes at 840 rpm with 4 volumes of phosphate buffer pH 7.4+10 mM (EDTA) and centrifuged at 27,000 g for 30 minutes.
The supernatant was discarded and the pellet resuspended in phosphate buffer with 10 mM EDTA+1- Triton X100 (2 ml/g wet weight). The crude homogenate was centrifuged at 27,000 g for 30-40 minutes.
The pellet was discarded and the supernatant was dispensed into 0.5 ml aliquots and stored at -20° C. until required.
Phosphate Buffer (0.1M. pH 7.4)
Made up to 500 ml with distilled H2 O, pH 7.4.
0.5 ml aliquots of brain (enzyme solution) as prepared above were thawed out. 2 ml of phosphate buffer was added to each aliquot. 2 ml of the enzyme solution was incubated with 2 ml PDS for 60 minutes at 0° C. The composition of blank, control and test solutions are given below:
0.9 ml phosphate buffer (0.1 M, pH 7.4)
0.85 ml phosphate buffer (0.1M, pH 7.4)
0.05 ml acetylthiocholine (5.2 mM)
(§4) 0.8 ml phosphate buffer (0.1M, pH 7.4)
0.05 ml Acetylthiocholine 5.2 mM
Change in absorbance was measured at 30 second intervals for 3 minutes at […]. The control was taken as 100%. Inhibitor was calculated as a percentage of the control. A graph of Log of inhibitor conc. versus % control was plotted and IC5. values calculated by interpolation.

[2] = target: T2, Butyrylcholinesterase (BChE) (Equus caballus, UniProt P81908); test: biochemical; details: for IC50: Table 2
T2 construct: purchased Sigma c-7512
T2 sequence (P81908 whole entry): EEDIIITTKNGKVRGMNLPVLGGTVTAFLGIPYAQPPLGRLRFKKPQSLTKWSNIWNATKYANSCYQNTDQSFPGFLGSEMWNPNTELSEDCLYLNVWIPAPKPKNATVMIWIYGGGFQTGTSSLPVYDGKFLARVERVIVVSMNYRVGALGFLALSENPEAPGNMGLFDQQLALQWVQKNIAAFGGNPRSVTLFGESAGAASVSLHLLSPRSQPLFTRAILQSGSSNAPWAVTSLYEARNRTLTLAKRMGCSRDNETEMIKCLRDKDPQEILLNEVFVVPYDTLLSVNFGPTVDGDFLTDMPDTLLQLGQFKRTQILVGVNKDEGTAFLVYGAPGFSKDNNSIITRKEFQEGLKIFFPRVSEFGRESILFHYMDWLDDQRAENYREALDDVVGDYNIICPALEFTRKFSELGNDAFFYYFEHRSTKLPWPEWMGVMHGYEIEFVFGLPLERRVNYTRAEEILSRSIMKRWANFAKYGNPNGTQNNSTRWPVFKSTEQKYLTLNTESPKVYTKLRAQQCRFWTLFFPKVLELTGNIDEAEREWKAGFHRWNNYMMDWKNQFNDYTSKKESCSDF
Method: The following components were utilised:
Phosphate Buffer (0.1M, pH 7.4)
Made up to 500 ml with distilled H2 O, pH 7.4
1 ml of enzyme solution (i), was incubated with 2 ml PDS for 60 minutes at 0° C.
Components of the assay blank, controls and test solutions are provided below:
0.9 ml phosphate buffer (0.1M, pH 7.4)
0.85 ml phosphate buffer (0.1 M, pH 7.4)
0.05 ml Acetylthiocholine (5.2 mM)
as §4
Control was taken as 100%. Inhibitor was calculated as a percentage of control. A graph of Log of inhibitor conc. versus % control was plotted and IC50 values calculated by interpolation.

[3] = system: noradrenaline (NA) uptake; test: Monoamine Uptake Inhibition Assay, noradrenaline (synaptosomal preparation); type: biochemical, rat (Sprague Dawley); details: Table 1; form SALT; n = 5; read-out: IC50 NA UPTAKE
Method: as §1, §2, §3

[4] = Table 3, read-out: 5-HT UPTAKE INHIBITION

SMILES | 5-HT UPTAKE INHIBITION TACRINE RATIO (5-HT (serotonin) uptake) | IC50 (5-HT (serotonin) uptake; [4]) [µM] | AChE TACRINE RATIO [1] | IC50 ([1]; Table 2, read-out: AChE IC50) [µM] | BChE TACRINE RATIO [2] | IC50 ([2]; read-out: BChE IC50) [µM] | IC50 [1] [µM] | AChE TACRINE RATIO ([1]; Table 2, relative to tacrine = 1.000) | IC50 ([2]; NB = No Block at 100 μM, read-out: BChE IC50 (no block)) [µM] | IC50 (5-HT (serotonin) uptake; Table 1, form SALT, n = 5, read-out: IC50 5HT UPTAKE) [µM] | IC50 [3] [µM] | IC50 ([1]; Table 1, form SALT, ±SEM, n = 5, read-out: IC50 AChE) [µM] | IC50 (5-HT (serotonin) uptake; Table 1, form BASE, n = 5, read-out: IC50 5HT UPTAKE) [µM] | IC50 ([1]; Table 1, form BASE, ±SEM, n = 5, read-out: IC50 AChE) [µM]
COc1ccc2nc3c(c(N)c2c1)Cc1ccccc1-3 [Compound 36, 6-Amino-8-methoxy-4,5-benzo-[5H]-cyclopenta-[1,2-b]-quinoline] | 0.300 | 29 | 0.002 | 47 |  |  |  |  |  |  |  |  |  | 
Nc1c2c(nc3ccc(Cl)cc13)-c1ccccc1C2 [Compound 35, 6-Amino-8-chloro-4,5-benzo-[5H]-cyclopenta-[1,2-b]-quinoline] | 0.070 | 114 |  | > 100 |  |  |  |  |  |  |  |  |  | 
Nc1c2c(nc3cc(F)cc(F)c13)CCC2 [Compound 9, 9-Amino-6,8-difluoro-2.3-dihydro-1H -cyclopenta[1,2-b] quinoline] | 0.146 | 52 | 0.650 | 0.12 | 0.018 | 1.4 |  |  |  |  |  |  |  | 
Cc1ccc2nc3c(c(N)c2c1)CCC3 [Compound 24, 9-Amino-7-methyl-2,3-dihydro-1H-cyclopenta [1,2-b] quinoline] | 0.447 | 17 | 0.012 | 6.7 | 0.023 | 1.1 |  |  |  |  |  |  |  | 
Nc1c2c(nc3ccc(F)cc13)CCCC2 [Compound 18, 9-Amino-7-fluoro-1,2,3,4-tetrahydro-acridine] | 3.304 | 2.3 | 0.390 | 0.2 | 0.061 | 0.41 |  |  |  |  |  |  |  | 
c1ccc(CNc2c3c(nc4ccccc24)CCC3)cc1 [Compound 28, N-(Phenylmethyl)-9-amino-2,3-dihydro-1H-cyclopenta[1,2-b] quinoline] | 1.310 | 5.8 |  |  | 0.002 | 13.8 | 39.6 | 0.002 |  |  |  |  |  | 
Nc1c2c(nc3c(F)cc(F)cc13)CCC2 [Compound 32, 9-Amino-5,7-difluoro-2.3dihydro-1H-cyclopenta[1,2b]quinoline] |  |  | 0.144 | 0.54 | 0.003 | 8.8 |  |  |  |  |  |  |  | 
Nc1c2c(nc3ccccc13)Cc1ccccc1CC2 [Compound 33, 13-amino 1,2-dihydro [1H] benz [7] annuleno [2,3-b] quinoline] | 0.400 | 18 | 0.002 | 36 |  |  |  |  |  |  |  |  |  | 
Cc1cc(C)c2nc3c(c(N)c2c1)CCC3 [Compound 23, 9-Amino-5-7-Dimethyl-2,3-dihydro-1H-cyclopenta [1,2-b] quinoline] | 0.962 | 7.9 | 0.004 | 19 |  | 52 |  |  |  |  |  |  |  | 
Nc1c2c(nc3cc(F)c(F)cc13)CCC2 [Compound 8, 9-amino-6,7-difluoro-2,3-dihydro-1H -cyclopenta [1,2-b] quinoline] | 3.800 | 2 | 2.229 | 0.035 | 0.003 | 10 |  |  |  |  |  |  |  | 
Cc1ccc(C)c2c(N)c3c(nc12)CCC3 [Compound 20, 9-Amino-5,8-dimethyl-2,3-dihydro-1H -cyclopenta [1,2-b] quinoline] | 1.949 | 3.9 | 0.041 | 1.9 | 0.018 | 1.4 |  |  |  |  |  |  |  | 
Nc1c2c(nc3ccc(F)cc13)-c1ccccc1CC2 [Compound 27, 7-Amino-9-fluoro-5,6-dihydrobenz[c] acridine] | 2.171 | 3.5 | 0.004 | 18 |  |  |  |  | > 100 |  |  |  |  | 
Nc1c2c(nc3ccc(F)cc13)-c1ccccc1C2 [Compound 34, 6-Amino-8-Fluoro-4,5-benzo-[5H]-cyclopenta-[1,2-b]-quinoline] | 0.400 | 18 | 0.030 | 2.9 |  |  |  |  |  |  |  |  |  | 
Cc1cccc2c(N)c3c(nc12)CCC3 [Compound 21, 9-Amino-5-methyl-2.3-dihydro-1H -cyclopenta[1,2-b] quinoline] | 0.633 | 12 | 0.024 | 3.3 | 0.002 | 13.8 |  |  |  |  |  |  |  | 
Nc1c2c(nc3cc(Cl)ccc13)CCC2 [Compound 17, 9-amino-6-chloro-2,3-dihydro-1H-cyclopenta[b] quinoline] | 5.067 | 1.5 | 8.041 | 0.01 | 0.19 | 0.13 |  |  |  |  |  |  |  | 
Nc1c2c(nc3ccccc13)-c1ccccc1C2 [Compound 2, 6-Amino-4,5-benzo-[5H]-cyclopenta-[1,2-b]-quinoline] |  |  |  |  |  |  |  |  |  | 2.2 | 2.3 | 0.35 |  | 
Nc1c2c(nc3c(F)ccc(F)c13)CCC2 [Compound 31, 9-Amino-5,8-difluoro-2,3-dihydro-1H-cyclopenta[1.2b] quinoline] |  |  | 0.166 | 0.47 | 0.005 | 4.8 |  |  |  |  |  |  |  | 
Nc1c2c(nc3ccccc13)CCCc1ccccc1-2 [Compound 7, 13-Amino 6.7 dihydro[1H] benz [7] annuleno [4,5-b]quinoline] |  |  |  |  |  |  |  |  |  |  |  |  | 0.02 | 38.2
Nc1c2c(nc3ccc(Br)cc13)CCC2 [Compound 25, 9-Amino-7-bromo-2,3-dihydro-1H-cyclopenta-[1,2-b] quinoline] | 1.434 | 5.3 | 0.008 | 10 | 0.013 | 1.9 |  |  |  |  |  |  |  | 
Cc1ccc2c(N)c3c(nc2c1C)CCC3 [Compound 26, 9-Amino-5,6-dimethyl-2,3-dihydro-1H-cyclopenta [1,2-b] quinoline] | 1.727 | 4.4 | 0.007 | 11.6 | 0.003 | 9.2 |  |  |  |  |  |  |  | 
Cc1cc(C)c2c(N)c3c(nc2c1)CCC3 [Compound 30, 9-Amino-6,8-dimethyl-2,3-Dihydro-1H -cyclopenta [1,2-b] quinoline] | 0.938 | 8.1 | 0.600 | 0.13 | 0.035 | 0.71 |  |  |  |  |  |  |  | 
Nc1c2c(nc3ccc(F)c(F)c13)CCC2 [Compound 10, 9-Amino-7,8-difluoro-2,3-dihydro-1-H-cyclopenta-[1,2-b] quinoline] | 0.029 | 260 | 0.190 | 0.41 | 0.002 | 15 |  |  |  |  |  |  |  | 
